In a melting point compilation (Tetko et al.) one finds melting point data, which are given here for 106 compounds.

As a reminder, the melting point is the temperature, or range, at which the solid turns liquid. As to `O=C(NC(CO)C(O)c1ccc([N+](=O)[O-])cc1)C(Cl)Cl` (stereo unspecified), the melting point worked out at 150 °C.

In turn, `CC(C)C1(C)N=C(c2nc3ccccc3cc2C(=O)O)NC1=O` (stereo unspecified) gave a melting point of 224 °C. Then `O=S(=O)(O)C(F)(F)F`, with under 25 °C. `COC(=O)C1(C(=O)OC)Cc2cc(C)ccc2C(=O)O1` gave a melting point of 135 to 136 °C. Then `O=C1/C(=N/Nc2ccncc2)C(C(F)(F)F)=NN1c1ccccc1`, with 177 °C; and `O=[N+]([O-])c1ccc(OCCN2CCOCC2)cc1`, with 84 to 86 °C. Then `COc1ccc(C(=O)NN=C(C)c2c(O)c3ccccc3n(-c3ccccc3)c2=O)cc1`, with 218 °C; and `CCNc1cc(NC(C)=O)ccc1C`, with 107 to 109 °C; and `Cn1nc(-c2cccs2)cc1CCl`, with 96 to 97 °C. Then `CC(=O)Oc1cccc(I)c1`, with 38 °C; and `N#CCc1nn(-c2ccccc2)c(N)c1C#N`, with 164 °C; and `O=C(O)CNCC(=O)O`, with 248 °C.

On to `Cc1nccc2ccccc12`, for which the melting point was 10 °C. The figure for `CC(=O)c1cc(-c2ccc(Cl)c(Cl)c2)no1` is 130 to 132 °C. The figure for `Cc1cc(N)no1` is 59 to 63 °C; for `O=C(Nc1ccccc1Br)C(C(F)(F)F)C(F)(F)F` it is 183 to 185 °C. Then `Nc1ccc(/C(=C\c2ccccc2N)C(=O)O)cc1`, with 186 °C; and `c1ccc(-c2cccc3cccc(-c4ccccc4)c23)cc1`, with 147 °C; and `Cc1nc(N)ccc1[N+](=O)[O-]`, with 185 to 189 °C. As to `CCOC(=O)C1=C(C)NC(C)=C(C(=O)OCC)C1c1ccccc1`, the melting point was determined as 157 °C. The figure for `O=C(O)c1ccnn1-c1ccccc1` is 182 to 183 °C; for `CCOC(=O)c1cc(C)nc2ccc(Br)cc12` it is 110 to 111 °C. Then `CC(=O)Nc1ccccc1F`, with 78 °C. In turn, `CC1CNC(C(C2=NCC(C)N2)C2=NCC(C)N2)=N1` (stereo unspecified) gave a melting point of 241 to 242 °C. Then `Clc1ncnc2sc(-c3ccccc3)cc12`, with 139 to 140 °C; and `COC(=O)C(C#N)=C(SCc1ccccc1)SCc1ccccc1`, with 104 °C. Then `CC12CCC(=O)C=C1CCC1C3CCC4(CCC(=O)O4)C3CCC12C` (stereo unspecified), with 158 °C; and `CSc1ccc([N+](=O)[O-])cc1`, with 65 to 68 °C; and `c1ccc2c(c1)c1cccc3c4c5ccccc5c5cccc(c2c13)c54`, with 305 °C.

`CSc1nc(N)c(C#N)s1` showed a melting point of 207 to 210 °C.

`COc1ccc(C(=O)c2ccccc2Cl)cc1OC`: the melting point was in the range of 125 to 126 °C. The figure for `O=C(OC(C(=O)c1ccc2c3c(cccc13)CC2)c1ccccc1)c1ccccc1` (stereo unspecified) is 156 °C; for `CCC(C)CCC(C)O` (stereo unspecified) it is -61 °C. `Nc1n[nH]c(N)c1Cc1ccc(Cl)cc1` came in with a melting point of 165 to 167 °C. Then `OCc1ccnc(Cl)c1`, with 65.5 to 67.5 °C; and `Cc1cc(C)c(O)c(C(=O)CC2CC(=O)NC(=O)C2)c1`, with 201 °C; and `CCn1nc(C)cc1C(=O)O`, with 139 °C. The figure for `CC(=O)C1CC[C@]2(C)[C@H]3CC[C@]4(C)C(O)CC[C@H]4[C@@H]3CC[C@@]2(C)C1` (stereo partly specified) is 152 °C; for `COc1ccc(-c2nnc3n2NCS3)cc1` it is 200 °C. Then `CC(=O)Oc1cccc2c1C(=O)c1c(OC(C)=O)cc(C(=O)O)cc1C2=O`, with 218 °C. The compound `Brc1ccc(Oc2ccc(Br)c(Br)c2Br)c(Br)c1Br` registered a melting point of 183 °C. Then `CC12C=CC(CC1)C2(C)C` (stereo unspecified), with 113 °C. The figure for `Nc1ccc(CCc2ccc(N)cc2)cc1` is 137 °C; for `CC12CCC(CC(Br)c3ccccc3)(OC1=O)C2(C)C` (stereo unspecified) it is 206 °C; for `COc1ccc(-c2csc(/C(C#N)=C/c3ccc(Cl)cc3Cl)n2)cc1` it is 142 °C.

In turn, `c1ccc(C23CC4CC(CC(C4)C2)C3)cc1` had a melting point of 84 to 85 °C. As to `CCCC(NC(=O)C(C)N)C(=O)O` (mixture of isomers), the melting point fell in the range of 240 to 242 °C. With `CC(C)(C(=O)O)C(C)(C)C(=O)O`, the melting point stood at 200 °C. Consider `CC(C)(C)C(N)C(=O)O` (racemic), for which the melting point was 300 °C. Then `COc1cc(NC(=S)Nc2ccc(Br)cc2)c(C(c2ccc(C)o2)c2ccc(C)o2)cc1OC`, with 167 °C. For `Cc1cc(C2(c3cc(C)c(O)c(Br)c3C)OS(=O)(=O)c3ccccc32)c(C)c(Br)c1O`, the melting point was determined as 218 °C. Then `c1ccc2c(c1)OCCOCCOCCOCCOc1ccccc1OCCOCCOCCOCCO2`, with 104 to 108 °C; and `O=C(O)C(=S)CC1CCCC(CC(=S)C(=O)O)C1` (stereo unspecified), with 85 °C; and `O=S(=O)(c1ccc(Cl)cc1)C(F)(F)C(F)Cl` (stereo unspecified), with 55 to 57 °C. The figure for `O=C(NCCCC[C@H](NC(=O)OCc1ccccc1)C(=O)O)OCC1c2ccccc2-c2ccccc21` is 101 to 105 °C; for `COc1cc(OC)c(OC)cc1/C=C/C(=O)O` it is 164 to 167 °C.

`CC(=O)Nc1cc(N)c(C=Cc2ccccc2)cc1/C=C/c1ccccc1` showed a melting point of 218 °C. Then `c1cc2c3c(c4ccc5ccccc5c4cc3c1)CC2`, with 174 °C.

Consider `O=C(Cc1ccccc1)c1ccc(O)cc1O`, for which the melting point was in the range of 112 to 117 °C.

Take `O=C(O)C(F)(F)C(F)(F)C(F)(F)C(F)(F)C(F)(C(F)(F)F)C(F)(F)F`: the melting point was found to be 13 °C. The figure for `BrCC(CBr)=C(CBr)CBr` is 135 to 145 °C.

In the case of `O=C(O)c1cccc2ccsc12`, the melting point fell in the range of 176 to 178 °C. Then `OCc1cccc(-c2ccsc2)c1`, with 88 to 90 °C.

As for `COC(=O)c1sc(Br)c(Br)c1O`, the melting point fell in the range of 129 to 131 °C. Then `CC(=O)Nc1cc(N)ccc1C`, with 141 to 142 °C; and `O=C(O)c1ccc(-c2cccs2)s1`, with 177 to 178 °C; and `Cn1c(=O)c(C(N)=S)cn(-c2ccccc2)c1=O`, with 229 to 232 °C. The figure for `O=C1c2ccccc2CC2CCc3ccccc3N12` (stereo unspecified) is 130 °C; for `COc1cc2cc(c1Cl)N(C)C(=O)CC(OC(=O)C(C)N(C)C(C)=O)C1(C)OC1C(C)C1CC(O)(NC(=O)O1)C(OC)C=CC=C(C)C2` (stereo unspecified) it is 172 °C.

In turn, `CCOP(=S)(Oc1ccc([N+](=O)[O-])cc1)c1ccccc1` (stereo unspecified) returned a melting point of 36 °C. Then `O=C(O)c1cc2ccccn2n1`, with 189 to 192 °C; and `c1ccc2c(c1)OCCOCCOCCOc1ccccc1OCCO2`, with 117 to 120 °C. Then `OC(c1c2ccccc2cc2ccccc12)C(F)(F)F` (stereo unspecified), with 142 °C; and `O=C(O)c1cccc(-c2ccccc2)c1O`, with 186 °C; and `CCOC(=O)C1CCN(Cc2cccc(N)c2)CC1`, with 42 to 46 °C. Then `CC12CCC(O)CC1CCC1C2CCC2(C)C1CCC2(O)C#Cc1ccccc1` (stereo unspecified), with 120 to 123 °C; and `CC1=C(C(=O)OCc2ccccc2)C(c2ccco2)NC(=O)N1` (stereo unspecified), with 195 °C; and `N#Cc1cc(Br)ccc1O`, with 160 to 162 °C. As to `Cc1noc(-c2ccccc2)c1I`, the melting point was in the range of 66 to 68 °C.

On to `Cc1c(N)cccc1N`, for which the melting point is 106 °C. Then `COC(=O)c1ccc(C(=O)O)nc1`, with 187 to 190 °C. The figure for `Cc1c(N/N=C2/C(=O)N(c3ccccc3)N=C2C(F)(F)F)c(=O)n(-c2ccccc2)n1C` is 185 °C; for `Nc1ccccc1-n1cccn1` it is 44 to 46 °C; for `COc1ccc(/C=N/c2ccc(-c3ccc(/N=N/c4ccccc4)cc3)cc2)cc1` it is 214 to 215 °C.

In turn, `C=C1CCC1` showed a melting point of -135 °C.

Take `O=c1cc(C(F)(F)F)c2ccc(O)cc2o1`: the melting point is 179 to 182 °C. Then `Cn1ccc2c(CO)cccc21`, with 69 to 71 °C. Then `N#Cc1cc(/N=C/C=C/c2ccccc2)n(-c2c(Cl)cc(C(F)(F)F)cc2Cl)n1`, with 160 °C; and `OC(c1ccccc1)c1cccc(C(F)(F)F)c1` (stereo unspecified), with 63 °C; and `Cc1cc(C)c(O)c([N+](=O)[O-])c1`, with 70 °C. The figure for `CC(COc1ccc(Oc2ccccc2)cc1)Oc1ccccn1` (stereo unspecified) is 49 °C; for `Cc1nc2sc3c(c2c(=O)n1NC(=O)c1ccc(Cl)cc1)CCCC3` it is 234 to 235 °C; for `N[C@H](CO)[C@H](O)c1ccccc1` it is 110 to 114 °C.

In turn, `Cc1cc(C)c2c(c1)CC2=O` gave a melting point of 48 °C. Then `CSc1nc(N)nc(-c2cccnc2)n1`, with 243 to 254 °C; and `CCOC(=O)C(C#N)=C(N)c1cc2cc(Br)cc(Br)c2oc1=O`, with 258 to 260 °C. `CC(=O)Cc1ncn(-c2cc(C)on2)n1` registered a melting point of 138 to 140 °C. The figure for `CC(=O)OC1Cc2ccccc21` (stereo unspecified) is 31 °C; for `O=C(c1ccc(F)cc1)C1CCN(CCn2c(=O)[nH]c3ccccc3c2=O)CC1` it is 231 °C.

As to `O=C(c1ccc(F)cc1)N1CCCCC1`, the melting point is 60 to 62 °C. The figure for `COc1ccc(CO)cc1O` is 136 °C; for `CC(C)(C)OC(=O)NC(Cc1ccc2ccccc2c1)C(=O)O` (stereo unspecified) it is 90 °C.

`Nc1nc(-c2ccccc2)ns1` showed a melting point of 152 to 156 °C. Then `C=CCN(CC=C)C(=O)C(Cl)Cl`, with 5.5 °C; and `Cn1c(=O)c2[nH]c(Cl)nc2n(C)c1=O`, with 290 °C; and `CC1=NNC(=O)C1(Br)Br`, with 131 °C.
